Measured values published in patent US6420313B1, “Thienylalkylamino-1,3,5-triazines and the use thereof as herbicides” (Bayer Aktiengesellschaft, priority 1998, dated 2002).

Columns and labels:
Format in all cases: in vivo
weeds [1] = assay: Post-emergence test, activity against weeds; details: result in words
Description: (§1) Solvent: 5 parts by weight of acetone
(§2) Emulsifier: 1 part by weight of alkylaryl polyglycol ether
(§3) To produce a suitable preparation of active compound, 1 part by weight of active compound is mixed with the stated amount of solvent, the stated amount of emulsifier is added and the concentrate is diluted with water to the desired concentration.
(§4) Test plants of a height of 5-15 cm are sprayed with the preparation of active compound such that the particular amounts of active compound desired are applied per unit area. The concentration of the spray liquor is chosen so that the particular amounts of active compound desired are applied in 1000 l of water/ha.
(§5) After three weeks, the degree of damage to the plants is rated in % damage in comparison to the development of the untreated control.
(§6) 0%=no effect (like untreated control)

Ipomoea = assay: Post-emergence test/greenhouse, Ipomoea; details: after three weeks
Description: as §1, §2, §3, §4, §5, §6

Datura = assay: Post-emergence test/greenhouse, Datura; details: after three weeks
Description: as §1, §2, §3, §4, §5, §6

wheat [2] = assay: Post-emergence test/greenhouse, wheat; details: after three weeks
Description: as §1, §2, §3, §4, §5, §6

Solanum = assay: Post-emergence test/greenhouse, Solanum; details: after three weeks
Description: as §1, §2, §3, §4, §5, §6

[3] = test system: crop plants, such as, for example, maize, barley and wheat; assay: Post-emergence test, tolerance by crop plants; details: result in words
Description: as §1, §2, §3, §4, §5, §6

barley = assay: Post-emergence test/greenhouse, barley; details: after three weeks
Description: as §1, §2, §3, §4, §5, §6

Viola = assay: Post-emergence test/greenhouse, Viola; details: after three weeks
Description: as §1, §2, §3, §4, §5, §6

weeds [4] = assay: Pre-emergence test, activity against weeds; details: result in words
Description: as §1, §2, §3
(§7) Seeds of the test plants are sown in normal soil. After about 24 hours, the soil is sprayed with the preparation of active compound such that the particular amount of active compound desired is applied per unit area. The concentration of the spray liquor is chosen so that the particular amount of active compound desired is applied in 1000 liters of water per hectare.
as §5, §6

Setaria = assay: Post-emergence test/greenhouse, Setaria; details: after three weeks
Description: as §1, §2, §3, §4, §5, §6

[5] = test system: crop plants, such as, for example, cotton, maize, wheat and barley; assay: Pre-emergence test, tolerance by crop plants; details: result in words
Description: as §1, §2, §3, §7, §5, §6

Digitaria = assay: Post-emergence test/greenhouse, digitaria; details: 500 g of ai./ha, after three weeks
Description: as §1, §2, §3, §4, §5, §6

Abutilon = assay: Post-emergence test/greenhouse, Abutilon; details: 1000 g of ai./ha, after three weeks
Description: as §1, §2, §3, §4, §5, §6

Amaranthus [6] = assay: Post-emergence test/greenhouse, Amaranthus; details: 1000 g of ai./ha, after three weeks
Description: as §1, §2, §3, §4, §5, §6

Sinapis [7] = assay: Post-emergence test/greenhouse, Sinapis; details: 1000 g of ai./ha, after three weeks
Description: as §1, §2, §3, §4, §5, §6

maize [8] = assay: Post-emergence test/greenhouse, maize; details: 1000 g of ai./ha, after three weeks
Description: as §1, §2, §3, §4, §5, §6

Amaranthus [9] = assay: Pre-emergence test/greenhouse, Amaranthus; details: 1000 g of ai./ha, after three weeks
Description: as §1, §2, §3, §7, §5, §6

Sinapis [10] = assay: Pre-emergence test/greenhouse, Sinapis; details: 1000 g of ai./ha, after three weeks
Description: as §1, §2, §3, §7, §5, §6

maize [11] = assay: Pre-emergence test/greenhouse, maize; details: after three weeks
Description: as §1, §2, §3, §7, §5, §6

Alopecurus = assay: Pre-emergence test/greenhouse, Alopecurus; details: 1000 g of ai./ha, after three weeks
Description: as §1, §2, §3, §7, §5, §6

wheat [12] = assay: Pre-emergence test/greenhouse, wheat; details: 500 g of ai./ha, after three weeks
Description: as §1, §2, §3, §7, §5, §6

Row | SMILES | activity against weeds (weeds [1]) | tolerance by crop plants [3] | degree of damage, Ipomoea (Ipomoea; 500 g of ai./ha) | degree of damage, Datura (Datura; 500 g of ai./ha) | degree of damage, wheat (wheat [2]; 500 g of ai./ha) | degree of damage, Solanum (Solanum; 500 g of ai./ha) | activity against weeds (weeds [4]) | degree of damage, barley (barley; 500 g of ai./ha) | tolerance by crop plants [5] | degree of damage, Viola (Viola; 500 g of ai./ha) | degree of damage, maize (maize [11]; 500 g of ai./ha) | other results
1 | CCC(CCc1cc(Br)cs1)Nc1nc(N)nc(C(C)(C)F)n1 (racemic) [Example 2] | strong activity against weeds | tolerated well | – | – | – | – | – | – | – | – | – | degree of damage, Ipomoea (Ipomoea; 125 g of ai./ha): 95%; degree of damage, Datura (Datura; 125 g of ai./ha): 95%; degree of damage, wheat (wheat [2]; 125 g of ai./ha): 0%; degree of damage, Solanum (Solanum; 125 g of ai./ha): 100%; degree of damage, barley (barley; 125 g of ai./ha): 0%; degree of damage, Viola (Viola; 125 g of ai./ha): 95%
2 | CCC(CCc1ccc(Br)s1)Nc1nc(N)nc(C(C)F)n1 (racemic) [Example 4] | strong activity against weeds | tolerated well | 95% | 95% | 0% | 95% | strong activity against weeds | 0% | largely tolerated well | 100% | – | degree of damage, Setaria (Setaria; 500 g of ai./ha): 80%
3 | CCC(CCc1ccc(Br)s1)Nc1nc(N)nc(C(C)(C)F)n1 (racemic) [Example 5] | strong activity against weeds | tolerated well | 95% | 100% | 0% | 100% | strong activity against weeds | 0% | largely tolerated well | 95% | – | –
4 | CCC(CCc1cc(Br)cs1)Nc1nc(NC(C)=O)nc(C(C)F)n1 (racemic) [Example 6] | strong activity against weeds | tolerated well | 100% | 100% | 0% | 100% | strong activity against weeds | 0% | largely tolerated well | 100% | – | degree of damage, Digitaria (Digitaria): 90%
5 | CC(CCCc1cccs1)Nc1nc(N)nc(C(C)(C)F)n1 (stereo not shown) [Example 1, 2-amino-4-(1-fluoro-1-methyl-ethyl)-6-(1-methyl-4-(thien-2-yl)-butylamino)-1,3,5-triazine] | strong activity against weeds | tolerated well | – | – | – | – | strong activity against weeds | – | largely tolerated well | – | – | degree of damage, Abutilon (Abutilon): 95%; degree of damage, Amaranthus (Amaranthus [6]): 100%; degree of damage, Sinapis (Sinapis [7]): 100%; degree of damage, Setaria (Setaria; 1000 g of ai./ha): 80%; degree of damage, maize (maize [8]): 30%
6 | CC(CCCc1cccs1)Nc1nc(N)nc(C(C)(C)F)n1 (stereo not shown) [drawing 225] | – | – | – | – | – | – | – | – | – | – | – | degree of damage, Amaranthus (Amaranthus [9]): 95%; degree of damage, Sinapis (Sinapis [10]): 90%; degree of damage, maize (maize [11]; 1000 g of ai./ha): 0%; degree of damage, Alopecurus (Alopecurus): 80%
7 | CCC(CCc1ccc(Br)s1)Nc1nc(N)nc(C(C)F)n1 (stereo not shown) [drawing 226] | – | – | – | – | – | – | – | – | – | – | 0% | degree of damage, wheat (wheat [12]): 0%
8 | CCC(CCc1ccc(Br)s1)Nc1nc(N)nc(C(C)(C)F)n1 (stereo not shown) [drawing 227] | – | – | – | – | – | – | – | – | – | – | 0% | degree of damage, wheat (wheat [12]): 0%
9 | CCC(CCc1cc(Br)cs1)Nc1nc(NC(C)=O)nc(C(C)F)n1 (stereo not shown) [drawing 228] | – | – | – | – | – | – | – | – | – | – | 0% | –
